Experimental data taken from PMC11046985 (Neuro-Oncology Advances, 2024).
Where two headings read alike, the source gives them in different places.

Assays:
[1] = Afatinib plasma concentration, HPLC-MS/MS, phase I pulsatile afatinib; type: in vivo, human
Experimental: (§1) Pharmacokinetic (PK) data were obtained to guide optimal dose of afatinib. The time of maximum plasma concentration is reported between 2 and 5 hours after dosing.[18],[19]

[2] = Afatinib CSF concentration (lumbar puncture), HPLC-MS/MS; type: in vivo; details: human, oral
Experimental: as §1

[3] = read-out: Maximum concentration (Cmax) of afatinib in plasma; single dose of 40 mg, patients with solid tumors; cited from earlier work
[4] = daily afatinib, recurrent glioblastoma; read-out: Cmax in plasma; cited from earlier work
[5] = test system: U87MG human glioblastoma cells; details: cited from earlier work
[6] = test system: U87EGFRvIII human glioblastoma cells; details: cited from earlier work
[7] = mouse, 30 mg/kg afatinib, CSF from the dura through the atlanto-occipital membrane; cited from earlier work

## CN(C)C/C=C/C(=O)Nc1cc2c(Nc3ccc(F)c(Cl)c3)ncnc2cc1O[C@H]1CCOC1 [Afatinib]
[1]; 120 mg every 4 days cohort
  Highest afatinib level in blood, one patient: approximately 0.8 μM
[1]; human, plasma, 3 hours (± 2 hours) post dosing, oral, all cohorts
  Cmax: < 392 ng/mL
[1]; pulse dosing, all cohorts
  Pre-dose (trough) afatinib levels in blood: under 50 nM
[1]; subject 002, Cohort 1: 80 mg q4d, post dosing, C1D8
  Afatinib concentration in blood: 12.323 ng/mL
[1]; subject 002, Cohort 1: 80 mg q4d, pre dosing, C1D8
  Afatinib concentration in blood: 8.751 ng/mL
[1]; subject 002, Cohort 1: 80 mg q4d, pre dosing, C2D1
  Afatinib concentration in blood: 11.693 ng/mL
[1]; subject 002, Cohort 1: 80 mg q4d, pre dosing, EOT (EoC2)
  Afatinib concentration in blood: <LLOQ (EoC2)
[1]; subject 003, Cohort 1: 80 mg q4d, post dosing, C1D22
  Afatinib concentration in blood: 30.096 ng/mL
[1]; subject 003, Cohort 1: 80 mg q4d, pre dosing, C1D22
  Afatinib concentration in blood: 17.318 ng/mL
[1]; subject 004, Cohort 1: 80 mg q4d, pre dosing, C2D1
  Afatinib concentration in blood: <LLOQ
[1]; subject 005, Cohort 2: 120 mg q4d, post dosing, C1D15
  Afatinib concentration in blood: 37.68 ng/mL
[1]; subject 005, Cohort 2: 120 mg q4d, pre dosing, C2D1
  Afatinib concentration in blood: 7.18 ng/mL
[1]; subject 006, Cohort 2: 120 mg q4d, post dosing, C1D15
  Afatinib concentration in blood: 66.156 ng/mL
[1]; subject 006, Cohort 2: 120 mg q4d, pre dosing, C1D15
  Afatinib concentration in blood: <LLOQ
[1]; subject 006, Cohort 2: 120 mg q4d, pre dosing, C2D1
  Afatinib concentration in blood: 10.104 ng/mL
[1]; subject 006, Cohort 2: 120 mg q4d, pre dosing, C3D1
  Afatinib concentration in blood: <LLOQ
[1]; subject 006, Cohort 2: 120 mg q4d, pre dosing, C4D1
  Afatinib concentration in blood: 11.223 ng/mL
[1]; subject 008, Cohort 2: 120 mg q4d, post dosing, C1D8
  Afatinib concentration in blood: 392.01 ng/mL
[1]; subject 008, Cohort 2: 120 mg q4d, pre dosing, C1D8
  Afatinib concentration in blood: 22.243 ng/mL
[1]; subject 010, Cohort 3: 180 mg q4d, post dosing, C1D22
  Afatinib concentration in blood: 324.265 ng/mL
[1]; subject 010, Cohort 3: 180 mg q4d, pre dosing, C1D22
  Afatinib concentration in blood: 43.226 ng/mL
[1]; subject 011, Cohort 3: 180 mg q4d, post dosing, C1D8
  Afatinib concentration in blood: 11.705 ng/mL
[1]; subject 011, Cohort 3: 180 mg q4d, pre dosing, C1D8
  Afatinib concentration in blood: 11.616 ng/mL
[1]; subject 011, Cohort 3: 180 mg q4d, pre dosing, C3D1
  Afatinib concentration in blood: 19.265 ng/mL
[1]; subject 012, Cohort 3: 180 mg q4d, post dosing, C1D15
  Afatinib concentration in blood: 96.354 ng/mL
[1]; subject 012, Cohort 3: 180 mg q4d, post dosing, C2D1
  Afatinib concentration in blood: 85.834 ng/mL
[1]; subject 012, Cohort 3: 180 mg q4d, pre dosing, C1D15
  Afatinib concentration in blood: <LLOQ
[1]; subject 012, Cohort 3: 180 mg q4d, pre dosing, C2D1
  Afatinib concentration in blood: <LLOQ
[1]; subject 012, Cohort 3: 180 mg q4d, pre dosing, EOT (EoC4)
  Afatinib concentration in blood: 6.402 (EoC4) ng/mL
[1]; subject 013, Cohort 3: 180 mg q4d, pre dosing, C1D15
  Afatinib concentration in blood: 10.374 ng/mL
[1]; subject 013, Cohort 3: 180 mg q4d, pre dosing, C2D1
  Afatinib concentration in blood: 41.964 ng/mL
[1]; subject 013, Cohort 3: 180 mg q4d, pre dosing, C4D1
  Afatinib concentration in blood: 6.787 ng/mL
[1]; subject 014, Expansion Cohort 3: 180 mg q4d, post dosing, C1D8
  Afatinib concentration in blood: 60.605 ng/mL
[1]; subject 014, Expansion Cohort 3: 180 mg q4d, pre dosing, C1D8
  Afatinib concentration in blood: 11.442 ng/mL
[1]; subject 015, Cohort 4: 280 mg q7d, post dosing, C1D15
  Afatinib concentration in blood: 40.694 ng/mL
[1]; subject 015, Cohort 4: 280 mg q7d, pre dosing, EOT (EoC1)
  Afatinib concentration in blood: <LLOQ (EoC1)
[1]; subject 016, Cohort 4: 280 mg q7d, post dosing, C1D15
  Afatinib concentration in blood: 205.634 ng/mL
[1]; subject 017, Expansion Cohort 3: 180 mg q4d, post dosing, C1D15
  Afatinib concentration in blood: 89.884 ng/mL
[1]; subject 017, Expansion Cohort 3: 180 mg q4d, pre dosing, C1D15
  Afatinib concentration in blood: 10.425 ng/mL
[1]; subject 017, Expansion Cohort 3: 180 mg q4d, pre dosing, C2D1
  Afatinib concentration in blood: 5.708 ng/mL
[1]; subject 017, Expansion Cohort 3: 180 mg q4d, pre dosing, C3D1
  Afatinib concentration in blood: <LLOQ
[1]; subject 017, Expansion Cohort 3: 180 mg q4d, pre dosing, C4D1
  Afatinib concentration in blood: 6.264 ng/mL
[1]; subject 018, Cohort 4: 280 mg q7d, post dosing, C1D15
  Afatinib concentration in blood: 322.557 ng/mL
[1]; subject 018, Cohort 4: 280 mg q7d, post dosing, C2D1
  Afatinib concentration in blood: 340.709 ng/mL
[1]; subject 018, Cohort 4: 280 mg q7d, pre dosing, C1D15
  Afatinib concentration in blood: 9.603 ng/mL
[1]; subject 018, Cohort 4: 280 mg q7d, pre dosing, C2D1
  Afatinib concentration in blood: 22.084 ng/mL
[1]; subject 018, Cohort 4: 280 mg q7d, pre dosing, C3D1
  Afatinib concentration in blood: 14.169 ng/mL
[1]; subject 018, Cohort 4: 280 mg q7d, pre dosing, C4D1
  Afatinib concentration in blood: 11.731 ng/mL
[1]; subject 018, Cohort 4: 280 mg q7d, pre dosing, EOT (EoC4)
  Afatinib concentration in blood: 10.379 (EoC4) ng/mL
[1]; subject 019, Expansion Cohort 4: 280 mg q7d, post dosing, C1D8
  Afatinib concentration in blood: 153.973 ng/mL
[1]; subject 019, Expansion Cohort 4: 280 mg q7d, pre dosing, C1D8
  Afatinib concentration in blood: 9.857 ng/mL
[1]; subject 019, Expansion Cohort 4: 280 mg q7d, pre dosing, C2D1
  Afatinib concentration in blood: 11.805 ng/mL
[1]; subject 019, Expansion Cohort 4: 280 mg q7d, pre dosing, EOT (EoC2)
  Afatinib concentration in blood: <LLOQ (EoC2)
[1]; subject 020, Expansion Cohort 4: 280 mg q7d, post dosing, C1D15
  Afatinib concentration in blood: 110.625 ng/mL
[1]; subject 020, Expansion Cohort 4: 280 mg q7d, pre dosing, C1D15
  Afatinib concentration in blood: 8.586 ng/mL
[1]; subject 020, Expansion Cohort 4: 280 mg q7d, pre dosing, C2D1
  Afatinib concentration in blood: 11.278 ng/mL
[1]; subject 021, Expansion Cohort 4: 280 mg q7d, post dosing, C1D15
  Afatinib concentration in blood: 40.352 ng/mL
[1]; subject 021, Expansion Cohort 4: 280 mg q7d, pre dosing, C1D15
  Afatinib concentration in blood: 5.966 ng/mL
[1]; subject 021, Expansion Cohort 4: 280 mg q7d, pre dosing, C2D1
  Afatinib concentration in blood: <LLOQ
[1]; subject 021, Expansion Cohort 4: 280 mg q7d, pre dosing, EOT (C2D15)
  Afatinib concentration in blood: <LLOQ (C2D15)
[2]; 8 patients, approximately 3 hours after dosing in the first cycle, below lower limit of quantification
  concentration at 3 h: < 1.01 ng/mL
[2]; not detected, lower limit of quantification
  concentration at 3 h: < 2.09 nM
[3]
  Cmax: ~10 nM
[4]
  Cmax: ~24 nM
[5]
  Inhibitory concentration of 25% (IC25): approximately 2 μM
[6]
  Inhibitory concentration of 25% (IC25): ~1000 nM
[7]
  Time of peak concentration in CSF after dosing: one
